The supplement of paper PMC10702517
± gives the standard deviation.

Test: chemical recovery from spiked human plasma; higher = better extraction
Details: pooled human plasma
[1] = extraction method: PES+SPE (3 d PDMS equilibration then HLB SPE)
[2] = extraction method: SPE only (HLB 96-well)
[3] = extraction method: SPE only (HLB 96-well), PES comparison experiment
[4] = extraction method: solvent precipitation (ACN + hexane)

SMILES	chemical recovery [1] [%]	chemical recovery [2] [%]	chemical recovery [3] [%]	chemical recovery [4] [%]
COc1cc(Cc2cnc(N)nc2N)cc(OC)c1OC [Trimethoprim]	39.2 ± 3.2	45 ± 1.5	48 ± 6.2	72.5 ± 4.2
O=S(=O)(O)c1cccc2c(O)cccc12 [1-Naphthol-5-sulfonic acid]	–	–	35.9 ± 5.8	–
Oc1cc(O)c2c(c1)O[C@H](c1ccc(O)c(O)c1)[C@H](O)C2 [(-)-Epicatechin]	1.62 ± 1.1	10.4 ± 5.1	–	–
c1ccc2c(c1)sc1ccccc12 [Dibenzothiophene]	–	16.2 ± 6.1	–	–
CC(C)NCC(O)COc1cccc2[nH]ccc12 (stereo not drawn) [Pindolol]	42.3 ± 1.6	–	–	76 ± 2.5
Oc1c(Cl)cc(Cl)c2cccnc12 [5,7-Dichloro-8-hydroxyquinoline]	–	21.3 ± 1.8	–	–
COCCc1ccc(OCC(O)CNC(C)C)cc1 (stereo not drawn) [Metoprolol]	21.9 ± 2.5	36.2 ± 2.6	44 ± 5.4	75.2 ± 2.3
CCCCCCOC(=O)c1ccccc1C(=O)OCCCCCC [Dihexyl-phthalate]	–	20.6 ± 3.2	–	–
Cn1cnc2c1c(=O)n(CCCC(=O)O)c(=O)n2C [1-(3-carboxypropyl)-3,7-dimethylxanthine]	72.3 ± 13	54.3 ± 10	–	59.8 ± 6.9
Oc1ccc(C2(c3ccc(O)cc3)c3ccccc3-c3ccccc32)cc1 [Bisphenol-FL]	–	34.3 ± 5.9	–	26.8 ± 4.5
Cc1ccc2cc3ccccc3cc2c1 [2-Methylanthracene]	51.5 ± 4.5	3.56 ± 0.86	–	–
O=C(O)CCCCCCC(=O)O [Suberic-acid]	99.8 ± 34	82.2 ± 2.5	–	–
C=C(C)C(N)=O [Methacrylamide]	0.198 ± 0.34	–	–	–
CNCCCN1c2ccccc2CCc2ccccc21 [Desipramine]	1.49 ± 0.66	35.8 ± 2.3	–	62.7 ± 6.1
O=C(Nc1ccccc1)NC1CCCCC1 [1-Cyclohexyl-3-phenylurea]	70.3 ± 10	57.4 ± 16	–	79.9 ± 4
Clc1ccc(C(c2ccc(Cl)cc2)C(Cl)(Cl)Cl)cc1 [4,4-DDT]	–	–	52.8 ± 20	–
C[C@H](CCC(=O)O)[C@H]1CC[C@H]2[C@@H]3[C@H](O)C[C@@H]4C[C@H](O)CC[C@]4(C)[C@H]3CC[C@]12C [Chenodeoxycholic-acid]	–	37.4 ± 7.9	–	74.9 ± 4.7
O=C(NCCc1ncc(C(F)(F)F)cc1Cl)c1ccccc1C(F)(F)F [Fluopyram]	–	–	–	67.8 ± 2.1
O=C(OCc1ccccc1)c1ccccc1O [Benzyl salicylate]	–	1.14 ± 0.085	–	26.5 ± 2.6
CC(c1ccc(O)cc1)(c1ccc(O)cc1)c1ccc(O)cc1 [1,1,1-Tris(4-hydroxyphenyl)ethane]	59.9 ± 5	43.2 ± 4.1	–	43.3 ± 2.1
CCN(CCO)CCCC(C)Nc1ccnc2cc(Cl)ccc12 (stereo not drawn) [Hydroxychloroquine]	–	–	9.45 ± 7.5	–
CCN(CC)C(=O)C(C)Oc1cccc2ccccc12 (stereo not drawn) [Napropamide]	–	–	–	70.6 ± 2.5
Cn1c(N)nc2c3cccnc3ccc21 [2-Amino-3-methyl-imidazo[4,5-f]quinoline-(IQ)]	27 ± 5.9	13.8 ± 2.6	–	73.4 ± 2.7
COCCOCCOC [Diglyme]	–	11.5 ± 3.1	–	–
Oc1ccccc1-c1ccccc1O [2,2'-Dihydroxybiphenyl]	46.1 ± 1.6	43.3 ± 2.8	–	–

SMILES	chemical recovery [1] [%]	chemical recovery [2] [%]	chemical recovery [3] [%]	chemical recovery [4] [%]
c1ccc2c(c1)ccc1sc3ccccc3c12 [Benzo[b]naphtho(1,2-d)thiophene]	–	0.745 ± 0.2	–	20.4 ± 2.6
OC[C@@H](O)[C@@H](O)[C@H](O)[C@@H](O)CO [D-Glucitol]	–	3.85 ± 1.9	–	–
Cc1c2ccccc2cc2c1cc(Br)c1ccccc12 [5-Bromo-7-methylbenzo[a]anthracene]	–	1.01 ± 0.069	–	58.3 ± 3.7
Cn1c(N)nc2ncc(-c3ccccc3)cc21 [2-Amino-1-methyl-6-phenylimidazo[4,5-b]pyridine (PhIP)]	38.9 ± 2.9	39.3 ± 2.8	47 ± 5.8	72.4 ± 2.8
CC(C)COC(=O)c1ccccc1C(=O)O [Mono-iso-butyl-phthalate]	–	44.7 ± 3.3	–	65.5 ± 6.9
CNC(=O)Oc1cccc2c1OC(C)(C)C2 [Carbofuran]	41.4 ± 4.8	43.6 ± 1.7	–	47.2 ± 7
CC(=O)N(CCN(C(C)=O)C(C)=O)C(C)=O [Tetraacetylethylenediamine]	29.2 ± 6.4	–	–	–
CCCCCCCCCCCCN(C)C [N,N-Dimethyldodecylamine]	–	–	42.1 ± 8.8	78.3 ± 23
c1ccc2[nH]cnc2c1 [Benzimidazole]	16.9 ± 4.1	4.01 ± 3.3	–	72 ± 2.6
COc1cc2c(c(OC)c1OC)-c1ccc(OC)c(=O)cc1[C@@H](NC(C)=O)CC2 [Colchicine]	48.5 ± 3.6	45 ± 3.9	–	70 ± 2.5
CCn1cc(C(=O)O)c(=O)c2cc(F)c(N3CCNCC3)cc21 [Norfloxacin]	–	–	–	63.3 ± 5.8
c1ccc2cc(-c3cc4ccccc4s3)ccc2c1 [2-(2-Naphthalenyl)benzothiophene]	59.8 ± 2.4	0.402 ± 0.15	–	23.4 ± 1
CC(Oc1ccc(Oc2ncc(C(F)(F)F)cc2Cl)cc1)C(=O)O (stereo not drawn) [Haloxyfop-P]	41 ± 2.6	33.1 ± 3.1	–	68.1 ± 2.8
Oc1cc(Cl)c(Cl)c(Cl)c1 [3,4,5-Trichlorophenol]	58.9 ± 7.8	45 ± 3.1	–	70.1 ± 3.9
CC(C)C[C@H](CN)CC(=O)O [Pregabalin]	–	8.64 ± 5.9	–	66 ± 7.2
Cc1c(Br)c(Br)c(Br)c(Br)c1Br [Pentabromotoluene]	61.6 ± 3.7	6.76 ± 2.3	–	–
CNC(=O)Oc1cc(C)c(S(C)(=O)=O)c(C)c1 [Methiocarb-sulfone]	0.129 ± 0.019	19.9 ± 1.6	–	–
Oc1cccc2n[nH]nc12 [4-Hydroxybenzotriazole]	–	32.8 ± 2.4	48 ± 8.1	3.14 ± 2.8
COc1cccc([C@@]2(O)CCCC[C@@H]2CN(C)C)c1 [Tramadol]	31.3 ± 3.1	31.2 ± 2.6	–	–
CCCCCCCCOC(=O)CCc1cc(C(C)(C)C)c(O)c(C(C)(C)C)c1 [Octyl-3,5-di-tert-butyl-4-hydroxyhydrocinnamate]	–	–	0.29 ± 0.58	–
O=C(Nc1ccccc1)Nc1ccccc1 [1,3-Diphenylurea]	65.9 ± 7.5	46.9 ± 3.4	–	84.4 ± 7.3
C1CCC2CCCCC2C1 (stereo not drawn) [Decahydronaphthalene]	–	–	3.14 ± 1.3	–
CCN(CCO)c1ccc(/N=N/c2sc3cc(OC)ccc3[n+]2C)cc1 [Basic-Blue-41]	–	–	–	18.5 ± 1.6
O=C(O)CCCOc1ccc(Cl)cc1Cl [2,4-DB]	66.6 ± 7.5	50.7 ± 2.8	–	61.5 ± 6
O=C(c1ccc(O)cc1O)c1ccc(O)cc1O [2,2',4,4'-Tetrahydroxybenzophenone]	50 ± 4.4	51.4 ± 4.7	–	–

SMILES	chemical recovery [1] [%]	chemical recovery [2] [%]	chemical recovery [3] [%]	chemical recovery [4] [%]
CCCOC(=O)NCCCN(C)C [Propamocarb]	–	6.68 ± 4.3	–	54.9 ± 3.7
C[N+](C)(C)CC(O)CCl (stereo not drawn) [(3-Chloro-2-hydroxypropyl)trimethylammonium]	0.458 ± 0.03	1.05 ± 0.96	9.57 ± 8	–
Cn1cnc2c1c(=O)[nH]c(=O)n2C [Theobromine]	–	77.3 ± 28	–	–
O=C(O)C(F)(F)C(F)(F)C(F)(F)OC(F)(F)F [Perfluoro-4-methoxybutanoic-acid]	43.5 ± 3.9	36.7 ± 2.8	–	78.7 ± 3.5
CC[S+]([O-])CCSP(=O)(OC)OC (stereo not drawn) [Demeton-S-methyl-sulfoxide]	35.2 ± 3.8	30.2 ± 2.2	–	42.7 ± 12
O=C(c1ccccc1)C1CCCCC1 [Cyclohexylphenylketone]	–	9.88 ± 8.6	–	–
O=C(O)c1ccccc1Nc1cccc(C(F)(F)F)c1 [Flufenamic-acid]	58 ± 5.7	44.9 ± 11	–	51.1 ± 1.4
C=C(C)C(=O)NCCCN(C)C [N-(3-Dimethylamino)propyl)methacrylamide]	42.3 ± 14	39.9 ± 3.7	–	–
O=C(O)c1cccc(C(=O)O)c1 [Isophthalic-acid]	–	–	–	12.5 ± 5.4
COc1nc(C)nc(NC(=O)NS(=O)(=O)c2ccccc2Cl)n1 [Chlorosulfuron]	–	–	–	67.9 ± 3.4
C=CCc1ccc(O)c(OC)c1 [Eugenol]	42.8 ± 4.4	44.8 ± 1.8	–	50.3 ± 6.1
CC1CCN(CCCC(=O)c2ccc(F)cc2)CC1 [Melperon]	0.434 ± 0.15	35.9 ± 3	48.8 ± 6.8	61 ± 4.4
CCCCCCOC(=O)c1ccccc1C(=O)c1ccc(N(CC)CC)cc1O [Uvinul-A-Plus]	–	26.5 ± 9.6	–	–
O=C(O)C(F)(F)C(F)(F)C(F)(F)C(F)(F)C(F)(F)C(F)(F)C(F)(F)F [Perfluorooctanoic acid]	–	30.2 ± 2.8	33.6 ± 8.8	89.3 ± 19
CN1CCCC1=O [N-Methyl-2-pyrrolidone]	–	–	–	1.36 ± 2.4
COCCOCCOCCO [2-(2-(2-Methoxyethoxy)ethoxy)ethanol]	7.13 ± 2.3	6.88 ± 5.6	–	–
COP(=S)(OC)Oc1c(Cl)cc(C)cc1Cl [Tolclofos-methyl]	–	33.8 ± 9.1	–	62 ± 6.2
N=C(NCCCCCCNC(=N)NC(=N)Nc1ccc(Cl)cc1)NC(=N)Nc1ccc(Cl)cc1 [Chlorohexidine]	–	–	–	54.5 ± 1.9
CCNc1nc(NCC)[nH]c(=O)n1 [Simazine-2-Hydroxy]	20.1 ± 4.3	14.8 ± 5.5	–	75.6 ± 6
CCOC(=O)c1ccc(O)cc1 [Ethylparaben]	56.1 ± 4	45.3 ± 3	–	66.3 ± 2.4
O=S(=O)(O)C(F)(F)C(F)(F)C(F)(F)C(F)(F)C(F)(F)F [Perfluoropentanesulfonic-acid]	47.1 ± 4.2	36.5 ± 4.8	–	72.9 ± 3.6
Cc1ccc2cc3c(ccc4ccccc43)c3c2c1CC3 [3-Methylcholanthrene]	–	0.839 ± 0.34	–	58.3 ± 3.3
CCCCCCCCCCCCOC(=O)c1cc(O)c(O)c(O)c1 [Lauryl-gallate]	–	21.9 ± 6.3	–	–
